From PubChem BioAssay AID2060895 (Molecular Pharmacology Branch, DTP, NCI, 2025)

System: PDC 899932-113-R3-J6 complex spheroid viability
Assay: Anticancer human tumor 899932-113-R3-J6-PDC patient-derived melanoma cell line growth inhibition [RAS]
Details: for IC50: curve of first compound; for viability, T/C: stronger effect = lower value
How it was run: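 Multi-cell-type spheroids: tumor cells plus HUVEC endothelial cells and mesenchymal stem cells. RAS-pathway inhibitors were combined with targeted agents, each dosed in half-log steps down from clinical Cmax, or from 10 microM when Cmax was unknown.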

[1] = second compound 0.000949 µM, first compound 0.00316 µM
[2] = second compound 0.000949 µM, first compound 0.01 µM
[3] = second compound 0.000949 µM, first compound 0.0316 µM
[4] = second compound 0.000949 µM, first compound 0.1 µM
[5] = second compound 0.003 µM, first compound 0.00316 µM
[6] = second compound 0.003 µM, first compound 0.01 µM
[7] = second compound 0.003 µM, first compound 0.0316 µM
[8] = second compound 0.003 µM, first compound 0.1 µM
[9] = second compound 0.00949 µM, first compound 0.00316 µM
[10] = second compound 0.00949 µM, first compound 0.01 µM
[11] = second compound 0.00949 µM, first compound 0.0316 µM
[12] = second compound 0.00949 µM, first compound 0.1 µM
[13] = second compound 0.03 µM, first compound 0.00316 µM
[14] = second compound 0.03 µM, first compound 0.01 µM
[15] = second compound 0.03 µM, first compound 0.0316 µM
[16] = second compound 0.03 µM, first compound 0.1 µM
[17] = second compound 0.0949 µM, first compound 0.00316 µM
[18] = second compound 0.0949 µM, first compound 0.01 µM
[19] = second compound 0.0949 µM, first compound 0.0316 µM
[20] = second compound 0.0949 µM, first compound 0.1 µM
[21] = second compound 0.3 µM, first compound 0.00316 µM
[22] = second compound 0.3 µM, first compound 0.01 µM
[23] = second compound 0.3 µM, first compound 0.0316 µM
[24] = second compound 0.3 µM, first compound 0.1 µM
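Throughout, for viability, T/C: spheroids exposed to agents for seven days before readout; 100% = DMSO vehicle control wells.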

Compound `C=CC(=O)N1CCN(c2nc(OCC3CCCN3C)nc3c(F)c(-c4nc(N)cc(C)c4C(F)(F)F)c(Cl)cc23)C(C)C1` (centres undefined) + CCn1c(-c2cc(N3CCN(C)CC3)cnc2C(C)OC)c2c3cc(ccc31)-c1csc(n1)CC(NC(=O)C1CC1C)C(=O)N1CCCC(N1)C(=O)OCC(C)(C)C2 has an IC50 (second compound 0.000949 µM) of over 1000 nM, an IC50 (second compound 0.003 µM) of under 3.16 nM and an IC50 (second compound 0.00949 µM) of under 3.16 nM. It also gave an IC50 (second compound 0.03 µM) of under 3.16 nM, an IC50 (second compound 0.0949 µM) of under 3.16 nM and an IC50 (second compound 0.3 µM) of under 3.16 nM. It also gave a viability, T/C [1] of 73.2%, a viability, T/C [2] of 71.3% and a viability, T/C [3] of 75.9%. It also gave a viability, T/C [4] of 76.8%, a viability, T/C (second compound 0.000949 µM, first compound 0.316 µM) of 74% and a viability, T/C (second compound 0.000949 µM, first compound 1 µM) of 78.2%. For the same compound, the viability, T/C [5] was 39.8%, the viability, T/C [6] was 35.6% and the viability, T/C [7] was 36.5%. The viability, T/C [8] was 37.7%, the viability, T/C (second compound 0.003 µM, first compound 0.316 µM) was 42.3% and the viability, T/C (second compound 0.003 µM, first compound 1 µM) was 34.5%. For the same compound, the viability, T/C [9] was 3.88%, the viability, T/C [10] was 4.28% and the viability, T/C [11] was 6.59%. It also gave a viability, T/C [12] of 5.83%, a viability, T/C (second compound 0.00949 µM, first compound 0.316 µM) of 4.76% and a viability, T/C (second compound 0.00949 µM, first compound 1 µM) of 5.5%. For the same compound, the viability, T/C [13] was 2.75%, the viability, T/C [14] was 2.91% and the viability, T/C [15] was 4.47%. The viability, T/C [16] was 2.82%, the viability, T/C (second compound 0.03 µM, first compound 0.316 µM) was 2.96% and the viability, T/C (second compound 0.03 µM, first compound 1 µM) was 2.4%. The viability, T/C [17] was 2.13%, the viability, T/C [18] was 2.76% and the viability, T/C [19] was 2.86%. For the same compound, the viability, T/C [20] was 1.94%, the viability, T/C (second compound 0.0949 µM, first compound 0.316 µM) was 2.58% and the viability, T/C (second compound 0.0949 µM, first compound 1 µM) was 2.69%. The viability, T/C [21] was 2.09%, the viability, T/C [22] was 2.1% and the viability, T/C [23] was 3.32%. For the same compound, the viability, T/C [24] was 3.11%, the viability, T/C (second compound 0.3 µM, first compound 0.316 µM) was 2.88% and the viability, T/C (second compound 0.3 µM, first compound 1 µM) was 2.36%.

Work on `CC(C)n1nc(-c2ccc3oc(N)nc3c2)c2c(N)ncnc21` + CCn1c(-c2cc(N3CCN(C)CC3)cnc2C(C)OC)c2c3cc(ccc31)-c1csc(n1)CC(NC(=O)C1CC1C)C(=O)N1CCCC(N1)C(=O)OCC(C)(C)C2 yielded an IC50 (second compound 0.000949 µM) of 34.8 nM, an IC50 (second compound 0.003 µM) of under 0.316 nM and an IC50 (second compound 0.00949 µM) of under 0.316 nM. The IC50 (second compound 0.03 µM) was under 0.316 nM, the IC50 (second compound 0.0949 µM) was under 0.316 nM and the IC50 (second compound 0.3 µM) was under 0.316 nM. For the same compound, the viability, T/C (second compound 0.000949 µM, first compound 0.000316 µM) was 82%, the viability, T/C (second compound 0.000949 µM, first compound 0.001 µM) was 63.3% and the viability, T/C [1] was 73.7%. The viability, T/C [2] was 65%, the viability, T/C [3] was 51.4% and the viability, T/C [4] was 30.5%. It also gave a viability, T/C (second compound 0.003 µM, first compound 0.000316 µM) of 35.6%, a viability, T/C (second compound 0.003 µM, first compound 0.001 µM) of 40.4% and a viability, T/C [5] of 37%. It also gave a viability, T/C [6] of 34.4%, a viability, T/C [7] of 29.1% and a viability, T/C [8] of 18.6%. For the same compound, the viability, T/C (second compound 0.00949 µM, first compound 0.000316 µM) was 4.03%, the viability, T/C (second compound 0.00949 µM, first compound 0.001 µM) was 3.88% and the viability, T/C [9] was 4.42%. It also gave a viability, T/C [10] of 3.62%, a viability, T/C [11] of 2.93% and a viability, T/C [12] of 2.22%. It also gave a viability, T/C (second compound 0.03 µM, first compound 0.000316 µM) of 2.41%, a viability, T/C (second compound 0.03 µM, first compound 0.001 µM) of 2.53% and a viability, T/C [13] of 2.94%. The viability, T/C [14] was 2.25%, the viability, T/C [15] was 2.43% and the viability, T/C [16] was 0.98%. It also gave a viability, T/C (second compound 0.0949 µM, first compound 0.000316 µM) of 2.52%, a viability, T/C (second compound 0.0949 µM, first compound 0.001 µM) of 2.03% and a viability, T/C [17] of 1.78%. The viability, T/C [18] was 1.41%, the viability, T/C [19] was 1.07% and the viability, T/C [20] was 0.65%. It also gave a viability, T/C (second compound 0.3 µM, first compound 0.000316 µM) of 1.86%, a viability, T/C (second compound 0.3 µM, first compound 0.001 µM) of 1.82% and a viability, T/C [21] of 2.06%. For the same compound, the viability, T/C [22] was 1.52%, the viability, T/C [23] was 1.91% and the viability, T/C [24] was 0.73%.
